Experimental data: US20170348269A1, “TREATMENT OF UREA CYCLE DISORDERS IN NEONATES AND INFANTS” (Horizon Therapeutics, LLC, priority 2016, published 2017)

Experiments:
Type in all cases: in vivo, human
[1] = HPN-100-005 pharmacokinetics of HPN-100 and NaPBA in pediatric UCD patients; conditions: HPN-100-005 (N = 11)
Description: (§1) The pharmacokinetics of the short term studies can be summarized as follows. Mean exposure levels of HPN-100 metabolites PBA, PAA, and PAGN after doses of HPN-100 and NaPBA with meals (TID) in pediatric (29 days to 17 years of age) UCD patients in HPN-100-005 and HPN-100-012 studies are summarized below. The mean exposure to PBA, the parent metabolite, and mean exposure to PAGN, the terminal metabolite, show no systematic variation across age groups, while PAA exposure tended to decrease with increasing age, a finding consistent with those from population PK modeling which indicate that the rate of clearance/metabolism of PAA varies directly with body size. While systemic metabolite exposure, assessed as peak plasma concentration (Cmax) or AUC, is generally similar for HPN-100 and NaPBA, the minimum concentration (Cmin-ss) was higher—and/or percent-fluctuation less—for plasma PAGN, a finding consistent with slower gastrointestinal absorption of PBA when administered orally as HPN-100.

[2] = HPN-100-012 switch-over study, pharmacokinetics of HPN-100 and NaPBA in pediatric UCD patients; conditions: HPN-100-012 (N = 15), TID with meals, arithmetic mean
Procedure: HPN-100-012, an open-label, fixed sequence, switch-over study of the safety, PK and efficacy of HPN-100 compared to NaPBA in patients with UCDs, with a 12-month safety extension part. The switch-over part of the study and the 12-month safety extension are complete. The switch-over part was conducted at 7 U.S. centers and enrolled 15 pediatric UCD patients between 29 days and <6 year of age, all of whom completed the study. After review of all the safety data by the DSMB, 8 additional subjects were enrolled in the study after the switch-over phase was completed. The primary efficacy endpoint was the 24-hour AUC (area under the curve) for blood ammonia on Day 1 compared with Day 10.
as §1

[3] = test system: blood ammonia in pediatric patients with UCDs; assay: HPN-100-012 open-label fixed sequence switch-over study, blood ammonia control
Description: HPN-100-012, an open-label, fixed sequence, switch-over study of the safety, PK and efficacy of HPN-100 compared to NaPBA in patients with UCDs, with a 12-month safety extension part. […] After review of all the safety data by the DSMB, 8 additional subjects were enrolled in the study after the switch-over phase was completed. The primary efficacy endpoint was the 24-hour AUC (area under the curve) for blood ammonia on Day 1 compared with Day 10.

[4] = pediatric UCD patients, TID with meals, arithmetic mean

SMILES: O=C([O-])CCCc1ccccc1.[Na+] [NaPBA, sodium phenylbutyrate]
- Plasma PAA CLss/F [1, 4]: 34391 mL/min
- Plasma PBA CLss/F [1, 4]: 145463 mL/min
- Plasma PAA Cmin-ss ([1]; pediatric UCD patients, TID with meals, arithmetic mean (CV %)): 674 ng/mL
- U-PAGN Ae0-12 ([1]; urinary PAGN excreted 0-12 h, arithmetic mean): 7098020 µg
- U-PAGN Ae12-24 ([1]; urinary PAGN excreted 12-24 h, arithmetic mean): 5414406 µg
- U-PAGN Ae ([1]; urinary PAGN excreted, arithmetic mean): 12512426 µg
- Plasma PAA % Fluctuation [2]: 1289%
- Plasma PAA AUC0-24 [2]: 1458 µg·h/mL
- Plasma PAA CLss/F [2]: 94249 mL/min
- Plasma PAGN CLss/F [2]: 14360 mL/min
- Plasma PBA CLss/F [2]: 112093 mL/min
- Plasma PBA Cmin-ss [2]: 993 ng/mL
- Mean blood ammonia at the 12-hour time point ([3]; HPN-100 Day 10, NaPBA Day 1, highest value for both treatments): 41.03 µmol/L
- Mean blood ammonia at the 24-hour time point ([3]; NaPBA Day 1, lowest value on NaPBA): 34.66 µmol/L
